Test results as given in ChEMBL document CHEMBL1146005, “Estrogen receptor beta-subtype selective tetrahydrofluorenones: use of a fused pyrazole as a phenol bioisostere” (Bioorg Med Chem Lett, 2006).
Blank lines part the entries; values can stand above or below the molecule they belong to.

How the values were obtained:
[1] = AUC in Sprague-Dawley rat at 1 mg/kg, iv; assay type: ADME, organism-based; parameters: dose 1 mg/kg, route intravenous; conditions: plasma
[2] = Clearance in Sprague-Dawley rat at 1 mg/kg, iv and 2 mg/kg, po; assay type: ADME, organism-based; conditions: in vivo
[3] = Half life in Sprague-Dawley rat at 1 mg/kg, iv and 2 mg/kg, po; assay type: ADME, organism-based; conditions: in vivo
[4] = Oral bioavailability in Sprague-Dawley rat at 1 mg/kg, iv and 2 mg/kg, po; assay type: ADME, organism-based; conditions: in vivo
Estrogen receptor [5] = biological target: T1, Estrogen receptor (Homo sapiens, UniProt P03372)
T1 sequence (P03372 whole entry): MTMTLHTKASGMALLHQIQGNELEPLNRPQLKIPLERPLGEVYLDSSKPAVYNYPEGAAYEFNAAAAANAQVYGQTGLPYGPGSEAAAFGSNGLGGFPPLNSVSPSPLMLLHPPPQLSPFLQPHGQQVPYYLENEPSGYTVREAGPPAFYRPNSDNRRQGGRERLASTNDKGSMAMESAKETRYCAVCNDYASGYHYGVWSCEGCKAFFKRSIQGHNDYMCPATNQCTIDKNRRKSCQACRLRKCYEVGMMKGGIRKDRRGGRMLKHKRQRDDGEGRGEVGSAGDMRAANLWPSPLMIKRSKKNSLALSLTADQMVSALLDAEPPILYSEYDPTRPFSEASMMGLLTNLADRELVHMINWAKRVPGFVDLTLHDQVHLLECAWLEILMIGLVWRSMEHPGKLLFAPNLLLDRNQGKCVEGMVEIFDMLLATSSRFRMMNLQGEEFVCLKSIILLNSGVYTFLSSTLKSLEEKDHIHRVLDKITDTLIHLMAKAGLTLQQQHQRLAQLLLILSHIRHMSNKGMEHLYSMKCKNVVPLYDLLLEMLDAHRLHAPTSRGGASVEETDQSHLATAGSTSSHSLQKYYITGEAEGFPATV
Description: Agonist activity at human ERalpha transfected in HEK293 cells assessed as transactivation of alkaline phosphatase reporter gene

Estrogen receptor beta [6] = biological target: T2, Estrogen receptor beta (Homo sapiens, UniProt Q92731)
T2 sequence (Q92731 whole entry): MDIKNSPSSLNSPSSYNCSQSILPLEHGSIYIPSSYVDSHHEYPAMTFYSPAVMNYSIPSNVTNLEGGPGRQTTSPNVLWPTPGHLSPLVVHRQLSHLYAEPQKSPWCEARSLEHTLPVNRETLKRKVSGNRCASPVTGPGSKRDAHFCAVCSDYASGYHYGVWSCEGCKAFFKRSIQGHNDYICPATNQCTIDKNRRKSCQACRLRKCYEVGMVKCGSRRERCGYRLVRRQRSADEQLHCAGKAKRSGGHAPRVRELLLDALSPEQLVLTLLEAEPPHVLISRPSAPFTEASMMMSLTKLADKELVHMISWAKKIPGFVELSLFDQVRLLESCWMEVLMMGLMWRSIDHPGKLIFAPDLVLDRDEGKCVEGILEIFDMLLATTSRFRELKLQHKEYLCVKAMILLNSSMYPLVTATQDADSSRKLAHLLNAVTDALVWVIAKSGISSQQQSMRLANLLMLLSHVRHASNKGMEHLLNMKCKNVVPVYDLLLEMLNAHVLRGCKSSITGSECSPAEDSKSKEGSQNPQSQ
Description: Agonist activity at human ERbeta transfected in HEK293 cells assessed as transactivation of alkaline phosphatase reporter gene

Estrogen receptor [7] = biological target: T1, Estrogen receptor; remark: listed apart in the source
Description: Binding affinity to human ERalpha

Estrogen receptor beta [8] = biological target: T2, Estrogen receptor beta; remark: listed apart in the source
Description: Binding affinity to human ERbeta

Compound: CC[C@@]12CCC(=O)C(c3ccccc3)=C1c1ccc3[nH]ncc3c1C2
EC50 (Estrogen receptor [5]): 72 nM | EC50 (Estrogen receptor beta [6]): 0.8 nM | IC50 (Estrogen receptor [7]): 46 nM | IC50 (Estrogen receptor beta [8]): 1.4 nM

Compound: O=C1CC[C@@]2(CC3CC3)Cc3c(ccc4[nH]ncc34)C2=C1Br
IC50 (Estrogen receptor [7]): 230 nM | IC50 (Estrogen receptor beta [8]): 4 nM

Compound: O=C1CC[C@@]2(CCC3CC3)Cc3c(ccc4[nH]ncc34)C2=C1Br
AUC [1]: 0.8 µM·h | clearance [2]: 55 mL/min/kg | half-life [3]: 1.2 h | bioavailability [4]: 51% | EC50 (Estrogen receptor [5]): 61 nM | EC50 (Estrogen receptor beta [6]): 0.9 nM | IC50 (Estrogen receptor [7]): 229 nM | IC50 (Estrogen receptor beta [8]): 1.6 nM

Compound: CC[C@@]12CCC(=O)C(Cl)=C1c1ccc3[nH]nc(F)c3c1C2
IC50 (Estrogen receptor [7]): 82 nM | IC50 (Estrogen receptor beta [8]): 1.1 nM

Compound: CCCC[C@@]12CCC(=O)C(CC)=C1c1ccc3[nH]nc(F)c3c1C2
IC50 (Estrogen receptor [7]): 23 nM | IC50 (Estrogen receptor beta [8]): 0.3 nM

Compound: CC[C@@]12CCC(=O)C(C(F)(F)F)=C1c1ccc3[nH]ncc3c1C2=O
AUC [1]: 3.2 µM·h | clearance [2]: 15 mL/min/kg | half-life [3]: 1.2 h | bioavailability [4]: 62% | EC50 (Estrogen receptor [5]): 10.4 nM | EC50 (Estrogen receptor beta [6]): 0.4 nM | IC50 (Estrogen receptor [7]): 58 nM | IC50 (Estrogen receptor beta [8]): 1.5 nM

Compound: CC[C@@]12CCC(=O)C(Cl)=C1c1ccc3[nH]ncc3c1C2=O
IC50 (Estrogen receptor [7]): 139 nM | IC50 (Estrogen receptor beta [8]): 4.1 nM

Compound: C[C@@]12CCC(=O)C(C(F)(F)F)=C1c1ccc3[nH]ncc3c1C2
IC50 (Estrogen receptor [7]): 1480 nM | IC50 (Estrogen receptor beta [8]): 8 nM

Compound: CCCC[C@@]12CCC(=O)C(C(F)(F)F)=C1c1ccc3[nH]nc(F)c3c1C2
IC50 (Estrogen receptor [7]): 49.2 nM | IC50 (Estrogen receptor beta [8]): 1 nM

Compound: CC[C@@]12CCC(=O)C(C(F)(F)F)=C1c1ccc3[nH]nc(F)c3c1C2
AUC [1]: 1.2 µM·h | clearance [2]: 42 mL/min/kg | half-life [3]: 1.9 h | bioavailability [4]: 27% | EC50 (Estrogen receptor [5]): 8.3 nM | EC50 (Estrogen receptor beta [6]): 0.2 nM | IC50 (Estrogen receptor [7]): 50.9 nM | IC50 (Estrogen receptor beta [8]): 0.3 nM

Compound: CCCC[C@@]12CCC(=O)C(C(F)(F)F)=C1c1ccc3[nH]ncc3c1C2=O
AUC [1]: 0.7 µM·h | clearance [2]: 69 mL/min/kg | half-life [3]: 1.8 h | bioavailability [4]: 21% | IC50 (Estrogen receptor [7]): 40 nM | IC50 (Estrogen receptor beta [8]): 0.9 nM

Compound: CCCCC12CCC(=O)C(Br)=C1c1ccc(O)cc1C2 (racemic)
AUC [1]: 0.5 µM·h | clearance [2]: 102 mL/min/kg | half-life [3]: 1.5 h | bioavailability [4]: 0%

Compound: CCC12CCC(=O)C(C)=C1c1ccc3[nH]nc(Cl)c3c1C2 (racemic)
IC50 (Estrogen receptor [7]): 2420 nM | IC50 (Estrogen receptor beta [8]): 42.5 nM

Compound: CCC12CCC(=O)C(Br)=C1c1ccc3[nH]nc(F)c3c1C2 (racemic)
EC50 (Estrogen receptor [5]): 33.1 nM | EC50 (Estrogen receptor beta [6]): 0.8 nM | IC50 (Estrogen receptor [7]): 197 nM | IC50 (Estrogen receptor beta [8]): 1.6 nM

Compound: CC1=C2c3ccc4[nH]ncc4c3CC2(C)CCC1=O (racemic)
IC50 (Estrogen receptor [7]): 4410 nM | IC50 (Estrogen receptor beta [8]): 69 nM

Compound: CC12CCC(=O)C(Br)=C1c1ccc3[nH]ncc3c1C2 (racemic)
IC50 (Estrogen receptor [7]): 1990 nM | IC50 (Estrogen receptor beta [8]): 26 nM

Compound: CCCCC12CCC(=O)C(C3CC3)=C1c1ccc3[nH]ncc3c1C2 (racemic)
IC50 (Estrogen receptor [7]): 422 nM | IC50 (Estrogen receptor beta [8]): 7 nM

Compound: CCC12CCC(=O)C(C)=C1c1ccc3[nH]nc(Br)c3c1C2 (racemic)
IC50 (Estrogen receptor [7]): 5880 nM | IC50 (Estrogen receptor beta [8]): 103 nM

Compound: CCC12CCC(=O)C(C)=C1c1ccc3[nH]ncc3c1C2=O (racemic)
IC50 (Estrogen receptor [7]): 624 nM | IC50 (Estrogen receptor beta [8]): 31.8 nM

Compound: CCC12CCC(=O)C(Br)=C1c1ccc3[nH]ncc3c1C2=O (racemic)
EC50 (Estrogen receptor [5]): 49 nM | EC50 (Estrogen receptor beta [6]): 1.5 nM | IC50 (Estrogen receptor [7]): 352 nM | IC50 (Estrogen receptor beta [8]): 8 nM

Second part, the molecule after the results:

AUC [1]: 1.5 µM·h | clearance [2]: 36 mL/min/kg | half-life [3]: 0.7 h | bioavailability [4]: 74% | EC50 (Estrogen receptor [5]): 50 nM | EC50 (Estrogen receptor beta [6]): 0.6 nM | IC50 (Estrogen receptor [7]): 360 nM | IC50 (Estrogen receptor beta [8]): 2.8 nM
Compound: CC[C@@]12CCC(=O)C(C(F)(F)F)=C1c1ccc3[nH]ncc3c1C2

AUC [1]: 1 µM·h | clearance [2]: 58 mL/min/kg | half-life [3]: 0.9 h | bioavailability [4]: 55% | EC50 (Estrogen receptor [5]): > 1000 nM | EC50 (Estrogen receptor beta [6]): 5.8 nM | IC50 (Estrogen receptor [7]): 470 nM | IC50 (Estrogen receptor beta [8]): 7.7 nM
Compound: CC[C@@]12CCC(=O)C(C3CC3)=C1c1ccc3[nH]ncc3c1C2

AUC [1]: 1.5 µM·h | clearance [2]: 44 mL/min/kg | half-life [3]: 1.1 h | bioavailability [4]: 51% | EC50 (Estrogen receptor [5]): 104 nM | EC50 (Estrogen receptor beta [6]): 2.1 nM | IC50 (Estrogen receptor [7]): 1360 nM | IC50 (Estrogen receptor beta [8]): 7.2 nM
Compound: CC[C@@]12CCC(=O)C(C)=C1c1ccc3[nH]ncc3c1C2

IC50 (Estrogen receptor [7]): 93 nM | IC50 (Estrogen receptor beta [8]): 1.1 nM
Compound: CCCC[C@@]12CCC(=O)C(CC)=C1c1ccc3[nH]ncc3c1C2

AUC [1]: 0.7 µM·h | clearance [2]: 74 mL/min/kg | half-life [3]: 0.7 h | bioavailability [4]: 64% | EC50 (Estrogen receptor [5]): 65 nM | EC50 (Estrogen receptor beta [6]): 0.7 nM | IC50 (Estrogen receptor [7]): 249 nM | IC50 (Estrogen receptor beta [8]): 2.2 nM
Compound: CC[C@@]12CCC(=O)C(Br)=C1c1ccc3[nH]ncc3c1C2

AUC [1]: 0.9 µM·h | clearance [2]: 64 mL/min/kg | half-life [3]: 0.9 h | bioavailability [4]: 25% | IC50 (Estrogen receptor [7]): 176 nM | IC50 (Estrogen receptor beta [8]): 0.8 nM
Compound: CCCC[C@@]12CCC(=O)C(C(F)(F)F)=C1c1ccc3[nH]ncc3c1C2

IC50 (Estrogen receptor [7]): 2080 nM | IC50 (Estrogen receptor beta [8]): 5.2 nM
Compound: CCCC[C@@]12CCC(=O)C(C(=O)OC)=C1c1ccc3[nH]ncc3c1C2

AUC [1]: 2 µM·h | clearance [2]: 31 mL/min/kg | half-life [3]: 0.8 h | bioavailability [4]: 44% | EC50 (Estrogen receptor [5]): 1100 nM | EC50 (Estrogen receptor beta [6]): 935 nM | IC50 (Estrogen receptor [7]): > 10000 nM | IC50 (Estrogen receptor beta [8]): 4460 nM
Compound: CC[C@]12CCC(=O)C(C)=C1c1ccc3[nH]ncc3c1C2

AUC [1]: 0.9 µM·h | clearance [2]: 72 mL/min/kg | half-life [3]: 0.5 h | bioavailability [4]: 47% | EC50 (Estrogen receptor [5]): 152 nM | EC50 (Estrogen receptor beta [6]): 1.5 nM | IC50 (Estrogen receptor [7]): 470 nM | IC50 (Estrogen receptor beta [8]): 7.7 nM
Compound: CC[C@@]12CCC(=O)C(Cl)=C1c1ccc3[nH]ncc3c1C2

EC50 (Estrogen receptor [5]): 1170 nM | EC50 (Estrogen receptor beta [6]): 210 nM | IC50 (Estrogen receptor [7]): > 10000 nM | IC50 (Estrogen receptor beta [8]): 207 nM
Compound: CCC12CCC(=O)C(C(=O)OC)=C1c1ccc3[nH]ncc3c1C2 (racemic)

IC50 (Estrogen receptor [7]): 1050 nM | IC50 (Estrogen receptor beta [8]): 12 nM
Compound: CCCCC12CCC(=O)C(C)=C1c1ccc3[nH]ncc3c1C2 (racemic)

EC50 (Estrogen receptor [5]): 59 nM | EC50 (Estrogen receptor beta [6]): 1.7 nM | IC50 (Estrogen receptor [7]): 223 nM | IC50 (Estrogen receptor beta [8]): 4 nM
Compound: CCC1=C2c3ccc4[nH]ncc4c3CC2(CC)CCC1=O (racemic)

IC50 (Estrogen receptor [7]): 1410 nM | IC50 (Estrogen receptor beta [8]): 4.9 nM
Compound: CCCCC12CCC(=O)C(Br)=C1c1ccc3[nH]ncc3c1C2 (racemic)

IC50 (Estrogen receptor [7]): 976 nM | IC50 (Estrogen receptor beta [8]): 12.6 nM
Compound: CCCC12CCC(=O)C(C)=C1c1ccc3[nH]ncc3c1C2 (racemic)

EC50 (Estrogen receptor [5]): > 1000 nM | EC50 (Estrogen receptor beta [6]): 76 nM | IC50 (Estrogen receptor [7]): > 10000 nM | IC50 (Estrogen receptor beta [8]): 618 nM
Compound: CCC12CCC(=O)C=C1c1ccc3[nH]ncc3c1C2 (racemic)

IC50 (Estrogen receptor [7]): 663 nM | IC50 (Estrogen receptor beta [8]): 5.4 nM
Compound: CCCC12CCC(=O)C(Br)=C1c1ccc3[nH]ncc3c1C2 (racemic)

IC50 (Estrogen receptor [7]): > 10000 nM | IC50 (Estrogen receptor beta [8]): 283 nM
Compound: CCCCC12CCC(=O)C=C1c1ccc3[nH]ncc3c1C2 (racemic)
